Assay results: patent US20250122193A1, “NOVEL PYRIDOCARBAZOLIUM COMPOUNDS AND MEDICAL USES THEREOF” (MyCural Therapeutics, priority 2021, published 2025)

Assays:
[1] = molecular target: T1, homodimerization of the bZip protein GCN4 (Saccharomyces cerevisiae, UniProt P03069); assay: split Gaussia luciferase (GLuc) assay, GCN4:GCN4; type: cell-based; conditions: 6.5 μM
T1 construct: replacing the existing Zip-gene (GCN4); expressed in transfected cells; host or cells: HeLa
Experimental: (§1) FIG. 1: MYCMI-7 (Compound Example 1) inhibits the MYC:MAX interaction in cells, bind MYC in vitro, and blocks MYC function. A) Molecular structure of MYCMI-7. B-E) split Gaussia luciferase (GLuc) assay. MYC or MYCN and MAX Gluc constructs were co-transfected into HeLa cells together with a firefly luciferase vector. 24 hours post transfection cells were treated with compounds, and after another 17-24 hours cells were harvested and both GLuc and firefly luciferase activities were measured. The mean of three different experiments is shown. […] G) Quantification of isPLA dots. […] J) MYC target gene ODC1 expression after treatment with 5 μM MYCMI-7, quantified by qPCR. […] L) Recombinant MYC bHLHZip protein domain immobilized onto a CM5 chip was subjected to various concentrations of MYCMI-7 and the complex of MYCbHLHZip-MYCMI-7 was measured as response units by SPR. […]
0.2-0.4 μg of each GLuc-construct together with 0.05 μg pCMV-LUC (firefly luciferase) were used per transfection in 12 well plates. […] After 60 min incubation at room temperature 20 μM D-luciferin was added (substrate of Firefly luciferase) and luminescence was measured in a Lumat LB9501 (Berthold) or OmegaFluostar (BMG Labtech) luminometer. Directly after, Gaussia luciferase substrate Coelenterazine (Promega) was added to a final concentration of 20 μM in a mixture with “Stop n' Glow” (Promega) and the luciferase activity was measured. […]

[2] = molecular target: T2, endogenous MYC:MAX interaction (Homo sapiens, UniProt P01106); assay: in situ proximity ligation assay (isPLA), MYC:MAX; type: cell-based; conditions: 5 μM, 24 hours, MCF-7 cells
T2 construct: endogenous in cells; host or cells: MCF7
Experimental: as §1
Briefly, cells were grown on collagen-coated chamber slides (Falcon), treated with compounds and then washed twice with PBS and fixed in ice cold methanol for 5-15 min at room temperature. […] Images were taken using an Axiovert 200M inverted microscope (Zeiss) and fluorescent dots were quantified using semi-automated analysis in ImageJ (http://imagej.net) and averaged to number of dots per cell. […]

[3] = tested on: Burkitt's lymphoma cell lines; assay: growth of Burkitt's lymphoma cell lines; type: cell-based
Experimental: Cell culture and transfection: HeLa, MCF7, MDA-MB-231, U20S, HCT116, SK-N-F1, SK-N-RA, SK-N-AS, COS-7, Rat1 fibroblasts (Tgrl, H015.19 and HOMYC3), primary rat embryonic fibroblasts (REFs) were maintained in DMEM and Kelly, IMR-32, SK-N-DZ, P493-6, Daudi, CA46 and Ramos were kept in RPMI. In addition, the medium for H015.19 and primary REFs contained 1% sodium pyruvate. […] U20S-MYC-ER cell lines were cultured in phenol-red free DMEM and treated with 100 nM 4-hydroxytamoxifen (4-OHT) (Sigma-Aldrich) to activate MYC-ER. […] Transfection of HeLa cells was performed using Lipofectamine 2000 reagent (Invitrogen) according to manufacturer's instructions. For transfection of 293-T, U20S and REFs, FuGene6 (ROCHE) was used in accordance with manufacturer's recommendations. The proteasome inhibitor Z-leu-leu-leu-H aldehyde ([…]) (Peptides International) was used at 40 μM concentration.

[4] = tested on: MYC target genes CR2, RGS16, CAMKV and nucleolin; assay: MYC transactivation of target genes in U2OS-MYCER cells, RT-qPCR; type: cell-based; conditions: 5 μM, 24 hours
Experimental: F) Inhibition of MYC transactivation of target genes CR2, RSG16, CAKMV and nucleolin as determined by RT-qPCR analysis, based on three biological experiments with three technical repeats each. U2OS-MYCER cells were treated with (MYC ON) or without (MYC OFF) 100 nM 4-hydroxy-tamoxifen (4-OHT) for 4 hours, after which DMSO or MYCMI-7 (5 μM) were added for 24 hours before total RNA was extraction. Fold changes in mRNA expression are presented relative to DMSO in MYC OFF cells after normalization to GAPDH, used as reference gene.

phosphorylation of ATM = assay: phospho-ATM and p53 by western blot, A375; type: cell-based; conditions: 5 μM, A375 cells, 3 hrs
Experimental: A) Measurement of MYC mRNA expression by RTqPCR after treatment with MYCMI-7 and different topoisomerase inhibitors at indicated concentrations. […] D) Western blot analysis of p53 and p21 expression after exposure to 5 μM MYCMI-7, ellipticine or camptothecin (CPT) in HCT116 cells. E) Western blot analysis of phospho-ATM, total ATM and p53 expression after exposure to indicated concentrations of MYCMI-7 and ellipticine in A375 cells after 3 hrs treatment.
For western blot equal amounts of proteins ([…]) were separated on a 4-12% SDS-PAGE gel. Proteins were transferred to Immobilion-P membrane (Millipore) and detected by immunostaining and chemoluminescence (Immobilion western HRP substrate; Millipore). For immunoprecipitations 500-1000 μg of protein was used. […] Briefly, cells were crosslinked with 1% formaldehyde on ice for 6 minutes. Nuclear chromatin was sonicated on ice to fragments from 0.3 kb to 0.5 kb. Nuclear chromatin equivalent to 2.5×10^7 cells was immunoprecipitated with 2 μg antibody.

HCT116-TIR-AID cells = assay: auxin-induced TOP2A depletion in HCT116 cells; type: cell-based
[5] = tested on: MDA-MB-231 xenograft tumors; assay: MDA-MB-231 xenograft
Experimental: A) Tumor growth of MDA-MB-231 xenografts in mice injected with 6.25 mg/kg MYCMI-7 or vehicle intratumorally twice a week until sacrificed. Tumor growth was monitored by measuring tumor size (mm^3) every 4th day. B) Survival curve of the mice in A) sacrificed when the tumors reached a volume of 1000 mm^3. C) Immunohistochemistry staining for MYC and apoptosis marker caspase 3 in MDA-MB-231 tumor tissue from vehicle- and MYCMI-7 treated animals at end point, D) Immunofluorescence staining of proliferation and apoptosis markers Ki67 and TUNEL, respectively, in MDA-MB-231 xenograft tumor tissue from vehicle- and MYCMI-7 treated animals at end point. E) MYCN-amplified SK-N-DZ neuroblastoma xenograft mice injected with 6.25 mg/kg MYCMI-7 or vehicle intratumorally twice a week until sacrificed. Tumor growth was monitored by measuring tumor volume (ml) daily. F) Survival curve of mice in E) sacrificed at a tumor volume of 1500 mm^3. G-H) H&E (G) and MYCN IHC (H) stainings of SK-N-DZ xenograft tumor tissue from vehicle- and MYCMI-7 treated animals at end point. A-H) At the end points, the last injection was done 3 hrs before sacrifice. Images were taken at 10× or 40× magnification.
For the xenograft transplantation mouse tumor models of breast cancer and neuroblastoma, 6-8 weeks old NOD/SCID mice (Taconic) or NMRI nu/nu (Scanbur) were injected s.c. with 5×10^6 MDA-MB-231 breast cancer cells or MYCN-amplified SK-N-DZ neuroblastoma cells. When tumors reached a size of 100-200 mm^3, mice started receiving treatment (6.25 mg/kg MYCMI-7) administered intratumorally (50 ml) twice per week. The last dose was administered 3 hrs before termination. Mice were sacrificed when the tumors had reached as size of 1000 mm^3 (MDA-MB-231) or 1500 mm^3 (SK-N-DZ). Tumors were collected and frozen in OCT (Cryomount, Histolab) or fixed in buffered 4% formaldehyde solution (Histolab) and paraffin-embedded.
Immunohistochemistry andimmunofluorescence: Apoptosis was visualized at the single-cell level on tumor cryosections using the TUNEL method using the In Situ Cell Death Detection Fluorescein-Roche kit and analyzed by fluorescence microscopy. Briefly, tumor cryosections were fixed in 4% paraformaldyde (PFA) and the assay was performed following the instructions from the manufacturer. Negative controls were run using the reagent without the TdT enzyme. Samples were mounted using Vectashield mounting medium (Vector) and DAPI was used as nuclear counterstaining. […] Visualization and image acquisition was done in a Zeiss microscope, and for panoramic views by a Vectra imaging system. For quantification, areas with positive TUNEL and Ki67 staining were measured using Image J software.

[6] = tested on: HO15.19 (MYC-/-) Rat1 fibroblasts; assay: WST-1 growth/viability assay, MYC null Rat1 fibroblasts
Experimental: A) Immortalized Rat1 fibroblasts with different MYC status; TGR1 (wt MYC), HO15.19 (MYC−/−) and HOMyc3 (HO15.19 with reconstituted MYC) were treated with indicated concentrations of MYCMI-7 for 48 hours. Cell proliferation/viability/metabolic activity was measured using the WST-1 assay. […] “Responsive” and “less responsive”; cell lines with positive and negative log 10 GI50 values, respectively. […] For the WST-1 assays the average of three different experiments performed in triplicates is shown.
Cell growth and viability assays: Cell growth and viability was estimated in triplicates with WST-1 (Roche) or Resazurin sodium salt (Sigma-Aldrich) assays in medium at 37° C. and 5% CO2 for 2 hours after which absorbance or fluorescence, respectively, was measured with an Omega Fluostar (BMG Labtech) in a 96 well plate format.

[7] = 6.25 mg/kg intratumoral twice weekly

T1 sequence (P03069 253-274 limits assumed): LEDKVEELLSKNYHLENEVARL
T2 sequence (P01106 16-454): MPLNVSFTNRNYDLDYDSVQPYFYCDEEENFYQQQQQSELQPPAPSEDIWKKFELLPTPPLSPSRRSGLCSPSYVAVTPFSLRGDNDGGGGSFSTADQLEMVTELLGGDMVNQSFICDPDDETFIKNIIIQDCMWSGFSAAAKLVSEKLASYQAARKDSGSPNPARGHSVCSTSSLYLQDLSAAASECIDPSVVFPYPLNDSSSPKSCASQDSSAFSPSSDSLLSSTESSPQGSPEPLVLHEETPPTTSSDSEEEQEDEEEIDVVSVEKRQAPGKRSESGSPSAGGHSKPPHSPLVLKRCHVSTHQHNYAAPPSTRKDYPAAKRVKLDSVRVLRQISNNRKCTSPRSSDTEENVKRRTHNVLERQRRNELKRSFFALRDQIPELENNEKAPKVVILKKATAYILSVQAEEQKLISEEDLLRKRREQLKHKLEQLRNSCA

SMILES: CCN(CC)CC[n+]1ccc2c(C)c3[nH]c4ccccc4c3c(C)c2c1 [MYCMI-7, 2-(5,11-Dimethyl-6H-25-pyrido[4,3-b]carbazol-2-yl)-N,N-diethylethanamine bromide]
- effect on homodimerization of GCN4 (GCN4:GCN4 GLuc) [1]: did not have any significant effect
- inhibition of MYC:MAX interaction (isPLA) [2]: strongly inhibited
- growth of three Burkitt's lymphoma cell lines [3]: strongly reduced growth
- 4-OHT-induced expression of CR2, RGS16, CAMKV and nucleolin [4]: significantly reduced
- phosphorylation of ATM and p53 expression (DDR signaling) (phosphorylation of ATM): only a slight increase
- effect of TOP2A depletion on sensitivity to MYCMI-7 (resazurin assay) (HCT116-TIR-AID cells; auxin-induced depletion): does not affect
- effect of TOP2A depletion on MYCMI-7-induced inhibition of MYC:MAX interactions (isPLA) (HCT116-TIR-AID cells; pre-treatment with auxin): no effect
- survival [5, 7]: significantly increased survival
- tumor growth [5, 7]: slowed down considerably
- H&E staining of tumor areas ([5]; mouse, in vivo): extensive necrosis/apoptosis
- MYC expression in tumors (IHC) ([5]; mouse, in vivo): reduced expression of MYC
- TUNEL staining ([5]; mouse, in vivo): increased TUNEL staining
- caspase 3 expression in tumors (IHC) ([5]; mouse, in vivo): increased caspase 3 expression
- proliferation and microvascular density (Ki67, CD31) ([5]; mouse, in vivo): reduced proliferation and microvascular density
- concentration above which viability of HO15.19 cells started to go down (off target effects) [6]: higher than 10 μM
- proliferation/viability of MYC null cells ([6]; concentrations of 10 μM, WST-1): unaffected
